The target of series [1] is T1, soluble epoxide hydrolase (sEH) (Homo sapiens, UniProt P34913).
T1 construct: purchased Cayman (Ann Arbor, MI, USA) 10011669
T1 sequence (P34913 1-555): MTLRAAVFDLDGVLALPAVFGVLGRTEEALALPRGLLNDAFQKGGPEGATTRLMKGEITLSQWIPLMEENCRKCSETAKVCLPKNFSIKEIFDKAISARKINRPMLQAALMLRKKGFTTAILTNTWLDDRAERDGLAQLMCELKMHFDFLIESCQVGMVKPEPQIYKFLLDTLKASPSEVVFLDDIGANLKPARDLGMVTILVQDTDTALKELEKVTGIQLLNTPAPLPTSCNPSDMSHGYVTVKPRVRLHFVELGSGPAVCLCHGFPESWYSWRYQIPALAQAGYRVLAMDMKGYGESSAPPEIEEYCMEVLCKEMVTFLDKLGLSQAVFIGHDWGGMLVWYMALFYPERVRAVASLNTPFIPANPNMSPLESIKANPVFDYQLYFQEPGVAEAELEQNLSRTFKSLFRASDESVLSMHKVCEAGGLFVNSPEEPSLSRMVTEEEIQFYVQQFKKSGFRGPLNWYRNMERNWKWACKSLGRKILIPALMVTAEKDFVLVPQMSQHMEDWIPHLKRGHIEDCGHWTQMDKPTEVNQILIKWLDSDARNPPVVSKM
As to conditions: cited from earlier work.

Series [2] has as its target T1, soluble epoxide hydrolase (sEH). In words: sEH enzyme kinetics (Lineweaver–Burk and Dixon plots). The series is classed as biochemical. Conditions: for Binding Mode (inhibition type): Lineweaver–Burk plot, substrate 1–12.5 µM. The method, then: sEH (130 µL, ~16 ng/mL) in 25 mM bis-Tris-HCl buffer (pH 7.0) containing 0.1% BSA and 20 µL of compound in MeOH was mixed in a 96-well plate, followed by the addition of 50 µL buffer containing 5 µM PHOME. The reactions were carried out at 37°C for 40 min. The inhibitory ratio was calculated according to the following equations: Inhibitory activityrate (%) = [[…]] × 100(1) where ΔC andΔS represent the intensity of control and inhibitor after 40 min, respectively. y = y0 + [(a × x)/(b + x)](2) where y0 is the minimum value on the y-axis, a denotes the difference between maximum and minimum values, and b refers to the x value at 50%.
The inverse of these concentrations and v0 values were used for the Lineweaver–Burk plot. […] Furthermore, the Dixon plot is represented by the modified Lineweaver–Burk plot.

Series [3] has the same target. In words: sEH inhibition assay (PHOME substrate, fluorescence). It counts as biochemical. As to conditions: 5 µM PHOME, 37°C, 40 min, pH 7.0; n = 3; read-out: IC50, inhibitory activity on sEH (converted). Here is the method: The reactions were carried out at 37°C for 40 min. The inhibitory ratio was calculated according to the following equations: Inhibitory activityrate (%) = [(ΔC/ΔS)/ΔC] × 100(1) where ΔC andΔS represent the intensity of control and inhibitor after 40 min, respectively. y = y0 + [(a × x)/(b + x)](2) where y0 is the minimum value on the y-axis, a denotes the difference between maximum and minimum values, and b refers to the x value at 50%.

Details of series [4]: method as in PMID 19794443. Conditions: cited from earlier work.

As usually defined, the Ki is a measure of affinity in units of concentration, obtained from inhibition or displacement. Low readings indicate tighter binding, high ones weaker binding. For orientation: IC50 means the concentration needed to halve the response being measured.

SMILES strings stand for the structures.

As to `O=c1c(O[C@@H]2O[C@H](CO)[C@H](O)[C@H](O)[C@H]2O)c(-c2ccc(O)c(O)c2)oc2cc(O)cc(O)c12` [quercetin-3-O-β-D-galactoside], the “inhibition type on sEH” value in series [1] is “non-competitive”.

As to `COc1cc(O)c2c(=O)c(OC)c(-c3ccc(O[C@@H]4O[C@H](CO)[C@@H](O)[C@H](O)[C@H]4O[C@@H]4OCC(O)(CO)[C@H]4O)c(OC)c3)oc2c1` (stereo partly drawn) [3,7,3′-tri-O-methylquercetin-4′-O-β-D-apiofuranosyl-(1→2)-O-β-D-glucopyranoside], the “inhibition type on sEH” value in series [1] is reported as “non-competitive”.

As for `O=c1cc(-c2ccc(O)cc2)oc2cc(O)cc(O)c12` [apigenin], the “inhibition type on sEH” value in series [1] is on record as “non-competitive”. `O=c1cc(-c2ccc(O)c(O)c2)oc2cc(O[C@@H]3O[C@H](CO)[C@@H](O)[C@H](O)[C@H]3O)cc(O)c12` [compound 2, luteolin-7-O-glucopyranoside] displayed a Ki in series [2] (Dixon plot) of 26.5 µM. Further, the “Binding Mode (inhibition type)” value in series [2] was “Non-competitive type”. Further, the IC50 in series [3] is 32.1 µM. As to `O=C(O)CCCCCCCCCCCNC(=O)NC12CC3CC(CC(C3)C1)C2` [AUDA, 12-(3-adamantan-1-yl-ureido)dodecanoic acid], the solubility entry in series [4] is reported as “low”.

For the compound `COc1cc(-c2cc(=O)c3c(O)cc(O)cc3o2)ccc1O` [compound 1, chrysoeriol], in series [2], the “Binding Mode (inhibition type)” value is recorded as “Non-competitive type”. As for `O=c1c(O)c(-c2ccc(O)cc2)oc2cc(O)cc(O)c12` [kaempferol], the “inhibition type on sEH” value in series [1] is given as “non-competitive”.
